Laboratory results taken from the supplement of paper PMC6470124.

Key:
[1] = absolute recovery over vacuum-assisted evaporative concentration; higher = better recovery; settings: enrichment method: VEC
Outline: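 Water samples (influent 6 mL, effluent 15 mL, surface and nanopure water 60 mL) were spiked with standards before concentration, after concentration or not at all, at 200 ng/L (nanopure/surface) or 1000 ng/L (wastewater), with class- and compound-specific adjustments. They were evaporated at 55 °C and 20 mbar to about 0.3 mL, brought to 0.4 mL and centrifuged. Internal standards were added afterwards and samples were analysed by LC-HRMS/MS. Absolute recovery was (response ratio pre − unspiked)/(post − unspiked) × 100, using averages of ≥ 2 replicates.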

[2] = absolute recovery over mixed-bed multilayer solid-phase extraction; higher = better recovery; settings: enrichment method: SPE
Outline: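 Wastewater (100–250 mL, adjusted to pH 6.5 and glass-fibre filtered) or 1000 mL unfiltered nanopure water was loaded on a three-layer mixed-bed cartridge and eluted with basic then acidic ethyl acetate/methanol. Standards were spiked before extraction, after it, or not at all, at 200 ng/L (water) or 1000 ng/L (wastewater), with class exceptions. Internal standards were added afterwards, then LC-HRMS/MS ran in both ionisation modes. Absolute recovery compares background-corrected response ratios of pre- versus post-spiked samples, averaged over at least two replicates.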

[3] = LC retention time (Atlantis T3, 5-95% MeOH gradient, 0.1% formic acid); higher = more retained / less polar
Outline: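 Retention times were recorded for reference standards (purity ≥ 95%) on a polar reversed-phase C18 column (Atlantis T3, 3 × 150 mm, 3 μm) at 0.3 mL/min. Elution used water and methanol, each with 0.1% formic acid, in a gradient from 5 to 95% methanol over 17.5 min. Detection was by high-resolution tandem mass spectrometry on a QExactive Plus, with positive and negative electrospray in separate runs. Peaks were found and integrated in TraceFinder (5 ppm tolerance, at least three points per peak) and then checked by hand.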

SMILES | absolute recovery ([1]; wastewater effluent) [%] | absolute recovery ([1]; wastewater influent) [%] | absolute recovery ([2]; nanopure water) [%] | absolute recovery ([2]; surface water) [%] | absolute recovery ([2]; wastewater effluent) [%] | absolute recovery ([2]; wastewater influent) [%] | LC retention time [3] [min]
CC1CC2C(C(O)CC3(C)C2CCC3(O)C(=O)CO)C2(C)C=CC(=O)C=C12 (stereo not drawn) [Methylprednisolon] | 106 | 101 | 93.1 | 92.3 | 84.4 | 88.4 | 18.9
CC[NH+](CC)CCNC(=O)c1cc(Cl)c(N)cc1OC [Metoclopramid] | 102 | 92.6 | 86.5 | 90 | 85.3 | 86.5 | 11.3
CCc1cccc(C)c1N1C(=O)COCC1C (stereo not drawn) [Metolachlor-Morpholinon] | 89.6 |  | 102 | 86.5 | 83.1 | 91.2 | 18.1
CCc1cccc(C)c1N(C(=O)C(=O)[O-])C(C)COC (stereo not drawn) [Metolachlor-OXA] | 110 | 99.1 | 81.6 | 67.5 | 87.9 | 97.3 | 21.3
CCc1cccc(C)c1N(C(=O)CCl)C(C)COC (stereo not drawn) [Metolachlor] | 93.1 | 91.7 |  | 93 | 90.6 | 92.5 | 20.6
COCCc1ccc(OCC(O)C[NH2+]C(C)C)cc1 (stereo not drawn) [Metoprolol] | 107 | 102 | 94.8 | 93.1 | 93.3 | 89.5 | 12.3
COc1cc(OC)n2nc(S(=O)(=O)Nc3c(Cl)ccc(C)c3Cl)nc2n1 [Metosulam] | 98.6 | 106 | 98.1 | 96.2 | 99.7 | 92.6 | 17
COc1ccc(NC(=O)N(C)C)cc1Cl [Metoxuron] | 104 | 98.1 | 104 | 92.8 | 90.2 | 129 | 16
COc1cc(C)c(C(=O)c2c(OC)ccc(Br)c2C)c(OC)c1OC [Metrafenone] | 84.4 | 101 | 103 | 92.4 | 85.4 | 117 | 21.4
CSc1nc(=O)c(C(C)(C)C)n[n-]1 [Metribuzin-Desamino (=DA)] | 101 | 109 | 96.2 | 91.2 | 94.4 | 90.7 | 17.7
CC(C)(C)c1n[nH]c(=O)n(N)c1=O [Metribuzin-Diketo (=DK)] | 91.2 | 96.4 | 94.5 |  |  |  | 15.6
CSc1nnc(C(C)(C)C)c(=O)n1N [Metribuzin] | 101 | 99.6 | 91.1 | 94.1 | 89.8 | 95.2 | 17.3
Cc1ncc([N+](=O)[O-])n1CCO [Metronidazol] | 102 | 102 | 95.6 | 91.3 | 87.1 | 95.9 | 10
COC(=O)c1ccccc1S(=O)(=O)[N-]C(=O)Nc1nc(C)nc(OC)n1 [Metsulfuron-methyl] | 102 | 105 | 98.1 | 95.2 | 95.9 |  | 17
Cc1cccc(C)c1OCC(C)[NH3+] (stereo not drawn) [Mexiletine] | 97.3 | 99.1 | 69.1 | 68.7 | 67.6 | 80.7 | 13.2
C[N+]1([O-])CCN2c3ccccc3Cc3ccccc3C2C1 (stereo not drawn) [Mianserin-N-Oxide] | 100 | 105 | 93.7 | 103 |  | 81.2 | 15.1
C[NH+]1CCN2c3ccccc3Cc3ccccc3C2C1 (stereo not drawn) [Mianserin] | 104 | 108 | 90.1 |  | 95.7 | 68.4 | 14.5
Cc1ncc2n1-c1ccc(Cl)cc1C(c1ccccc1F)=NC2 [Midazolam] | 102 | 106 | 87.5 | 90.5 | 89.6 | 83 | 14.5
O=C(NCCN1CCOCC1)c1ccc(Cl)cc1 [Moclobemid] | 105 | 94 | 91.4 | 100 | 90.8 | 84.5 | 11.6
C=CC(=O)OCCOC(=O)CCC(=O)[O-] [Mono(2-acryloyloxyethyl)-succinate] | 79.2 | 31.6 | 37.8 | 71.7 | 61.7 | 53.1 | 13.7
CON(C)C(=O)Nc1ccc(Cl)cc1 [Monolinuron] | 92.7 |  |  | 92.4 | 91.9 | 94.2 | 17.9
CN(C)C(=O)Nc1ccc(Cl)cc1 [Monuron] | 103 | 106 | 99.5 |  | 94.3 | 90.3 | 16.9
C[NH+]1CCC23c4c5ccc(O)c4OC2C(O)C=CC3C1C5 (stereo not drawn) [Morphin] | 104 | 99.7 | 81.1 | 91.3 | 87.9 | 89.6 | 7.4
CCCCC(C#N)(Cn1cncn1)c1ccc(Cl)cc1 (stereo not drawn) [Myclobutanil] | 109 | 101 | 102 | 91.9 | 94 | 85.1 | 19.8
COc1c(C)c2c(c(O)c1CC=C(C)CCC(=O)[O-])C(=O)OC2 [Mycophenolic-Acid] | 103 |  | 99.6 | 97.1 | 100 |  | 18.9
CC(=O)Nc1ccc(S(=O)(=O)[N-]c2ncccn2)cc1 [N4-Acetyl-Sulfadiazin] | 113 | 99.5 | 98.6 | 93.8 | 89.2 | 92.8 | 12

SMILES | absolute recovery ([1]; wastewater effluent) [%] | absolute recovery ([1]; wastewater influent) [%] | absolute recovery ([2]; nanopure water) [%] | absolute recovery ([2]; surface water) [%] | absolute recovery ([2]; wastewater effluent) [%] | absolute recovery ([2]; wastewater influent) [%] | LC retention time [3] [min]
CC(=O)Nc1ccc(S(=O)(=O)[N-]c2nc(C)cc(C)n2)cc1 [N4-Acetyl-Sulfamethazin] | 108 | 97.1 | 86.9 | 91 | 93.2 | 93.2 | 13.1
CC(=O)Nc1ccc(S(=O)(=O)[N-]c2cc(C)on2)cc1 [N4-Acetyl-Sulfamethoxazol] | 108 | 96 | 99.1 | 97.9 | 90.7 | 94 | 14.5
CC(=O)Nc1ccc(S(=O)(=O)[N-]c2nccs2)cc1 [N4-Acetyl-Sulfathiazol] | 105 | 101 | 98.7 | 96.1 | 94 | 90 | 12.2
C[NH+]=CNc1ccc(C)cc1C [N-(2-4-dimethylphenyl)-N-methylformamidine] | 76.9 | 79.1 | 35.1 | 27.7 | 47.9 | 52.5 | 11.1
CC(=O)N(C)c1ccc(N)cc1 [N-(4-Aminophenyl)-N-methyl-acetamid] | 97.6 | 85 | 64.8 | 65.4 | 56.8 | 67.5 | 7.84
COc1cccc(C2(O)CCCCC2C[NH3+])c1 (stereo not drawn) [N-Bisdesmethyl-Tramadol] | 105 | 98.5 | 50.1 | 47.4 | 46.3 | 70.2 | 12.8
CCC1OC(=O)C(C)C(OC2CC(C)(OC)C(O)C(C)O2)C(C)C(OC2OC(C)CC([NH2+]C)C2O)C(C)(O)CC(C)C[NH+](C)C(C)C(O)C1(C)O (stereo not drawn) [N-Desmethyl-Azithromycin] | 117 | 94.9 | 104 | 98.1 | 98.7 | 121 | 13.1
C[NH2+]CC(c1ccc(OC)cc1)C1(O)CCCCC1 (stereo not drawn) [N-Desvenlafaxin] | 105 | 101 | 76.9 | 82.5 | 76.2 | 85.7 | 14.1
C#CC[NH+](C)Cc1ccccc1 [N-Methyl-N-propargylbenzylamine] | 73.6 | 72.1 | 62.3 | 66.9 | 62.4 | 78.1 | 11.4
CC(=O)N(C)c1ccccc1 [N-Methylacetanilid] | 74.1 | 81.1 | 84.7 | 77.4 | 84.9 | 144 | 15.5
COc1ccc(C(C[NH3+])C2(O)CCCCC2)cc1 (stereo not drawn) [N-N-Didesvenlafaxin] | 105 | 91 | 40.5 | 50.1 | 44.7 | 66.6 | 14.1
CCN(CC)C(=O)c1cccc(C)c1 [N-N-diethyl-3-methylbenzamid (=DEET)] | 93.2 | 86.2 | 86.9 | 89.1 | 83.2 | 96.5 | 18.4
Cc1ccc(NS(=O)(=O)N(C)C)cc1 [N-N-dimethyl-N-(4-methylphenyl)-sulfamide] | 99.5 | 104 | 94.7 | 98 | 91.7 | 96.1 | 17.2
C[NH2+]CC(c1ccc(O)cc1)C1(O)CCCCC1 (stereo not drawn) [N-O-Didesvenlafaxin] | 106 | 100 | 80 | 79.7 | 76 | 83.4 | 12.1
C[NH2+]CCC(c1ccccc1)c1ccccn1 (stereo not drawn) [N-desmethylpheniramine] | 106 | 109 | 59.5 | 65.4 | 65.1 | 81.3 | 10.8
CCCCCCCCCC[N+](C)(C)[O-] [NN-Dimethyldicylamin-N-oxid] | 103 | 110 | 85.4 | 110 | 93.4 | 58.3 | 16.9
CCOc1ccc2ccccc2c1C(=O)NC1C(=O)N2C1SC(C)(C)C2C(=O)[O-] (stereo not drawn) [Nafcillin] | 111 | 144 | 74.1 | 27 | 36.7 | 44.8 | 19
O=C1CCC2(O)C3Cc4ccc(O)c5c4C2(CC[NH+]3CC2CC2)C1O5 (stereo not drawn) [Naltrexon] | 103 | 99 | 87.8 | 98.2 | 95.7 | 94.3 | 9.63
CCN(CC)C(=O)C(C)Oc1cccc2ccccc12 (stereo not drawn) [Napropamid] | 88.4 | 90.9 | 96.6 | 90.8 | 89.3 | 96.1 | 20.3
COc1ccc2cc(C(C)C(=O)[O-])ccc2c1 (stereo not drawn) [Naproxen] | 109 |  | 96.1 | 96.5 | 92.8 |  | 19.3
COc1ccc(CCC(=O)c2c(O)cc(OC3OC(CO)C(O)C(O)C3OC3OC(C)C(O)C(O)C3O)cc2O)cc1O (stereo not drawn) [Neohesperidin-dihydrochalcon] | 51.7 | 49.7 | 71.4 | 78.7 | 90.1 | 85 | 16.3
COC(=O)C(Cc1ccccc1)NC(=O)C(CC(=O)[O-])[NH2+]CCC(C)(C)C (stereo not drawn) [Neotam] | 89.2 | 81.8 | 91.9 | 91.3 | 93.8 | 95.2 | 17.2
COc1cc(OC)nc(NC(=O)[N-]S(=O)(=O)c2ncccc2C(=O)N(C)C)n1 [Nicosulfuron] | 103 | 102 | 95.8 | 97.3 | 96.2 | 95.7 | 16.9
C[NH+]1CCCC1c1cccnc1 (stereo not drawn) [Nicotine] | 76.9 | 79.1 | 35.1 | 27.7 | 47.9 | 52.5 | 11.1
C#CC[NH2+]C(C)Cc1ccccc1 (stereo not drawn) [Nordeprenyl] | 38.9 | 11.4 | 74.8 | 84.7 | 80.2 | 78.3 | 11.5
CCn1cc(C(=O)[O-])c(=O)c2cc(F)c(N3CC[NH2+]CC3)cc21 [Norfloxacin] | 104 |  | 75.9 | 68.2 | 74 | 74.9 | 11.5
